target: G-prodeshotein coupled receptor 4 (Homo sapiens, UniProt P46093); test: Radio Ligand Binding Assay: Serial dilutions of compounds (stock in 10 mM DMSO) are prepared by first diluting the compounds in DMSO followed by a 1:50 dilution into assay buffer (10 mM HEPES, pH 8.0, 100 mM NaCl, 5 mM MgCl2, 1 mM CaCl2, 0.5% fatty acid-free BSA, 0.05% Tween-20). […] The desired amount of membranes (20 μg/well) is diluted with assay buffer. […] 100 μL of the membrane-suspension is added and the plate stirred for 60 minutes.
Sequence (P46093 whole entry): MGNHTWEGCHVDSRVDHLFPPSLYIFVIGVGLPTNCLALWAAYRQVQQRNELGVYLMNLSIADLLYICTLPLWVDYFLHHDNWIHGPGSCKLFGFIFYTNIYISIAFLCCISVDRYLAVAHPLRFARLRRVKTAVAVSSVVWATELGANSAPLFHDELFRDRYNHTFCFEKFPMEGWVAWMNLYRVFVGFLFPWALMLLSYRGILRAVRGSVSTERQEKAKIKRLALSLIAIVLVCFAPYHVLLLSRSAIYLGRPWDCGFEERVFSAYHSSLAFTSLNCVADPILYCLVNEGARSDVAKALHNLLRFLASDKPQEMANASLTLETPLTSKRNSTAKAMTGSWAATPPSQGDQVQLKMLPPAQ

IC50	Compound
54 nM	CCc1nn2c(C)cc(C)nc2c1Cc1ccc(OC[C@H]2CC[C@@H](NC(=O)[C@H]3NCC[C@H]3O)CC2)cc1
35 nM	CCc1nn2c(C)cc(C)nc2c1Cc1ccc(OC[C@H]2CC[C@@H](N)CC2)cc1

Compound	IC50
CCc1nn2c(C)cc(C)nc2c1Cc1ccc(OCC2CCNCC2)cc1	22 nM

From ChEMBL document CHEMBL3638598, “Pyrazolo pyrimidine derivatives” (2014)
